Results: US20250195612A1, “Coversin for use in the treatment of rheumatic diseases” (Volution Immuno Pharmaceuticals SA, priority 2018, published 2025)

What was measured:
Human BLT2 = conditions: cited from earlier work
Human BLT1 = conditions: high affinity receptor; ref. [12]; cited from earlier work
[1] = system: K/BxN serum-transfer arthritis in C57BL/6 mice; assay: K/BxN serum transfer arthritis model, prophylactic (Example 1); assay type: in vivo, mouse (C57BL/6); conditions: 50 mg/kg orally once daily, day 0 to day 14
Source text: The K/BxN serum-transfer arthritis model was used to test whether development of arthritis could be prevented by Coversin. This model is a well-known murine model in which the immunological mechanisms occurring in rheumatoid arthritis (RA) are induced by transferring serum from arthritic transgenic K/BxN mice to naive mice. In the absence of treatment arthritic symptoms occur a few days later. This model is recognised to be highly relevant for RA, especially for the preclinical screening of new therapeutic targets for RA and perhaps other forms of inflammatory arthritis.
(§1) Experimental RA was induced using the protocol described by. Five mice were tested in each treatment group.
(§2) On day 0 C57BL/6 mice were assessed for clinical score and paw thickness using standard protocols. All mice received an injection of K/BxN serum on day 0 and on day 2. Each treatment was administered every day from day 0 to day 14. On days where serum was also injected (day 0 and day 2) drug was administered immediately after the serum injection. Clinical score and paw thickness were measured every other day.
Treatment groups were as follows: • Group 1: PBS (vehicle, subcutaneous, q24h) • Group 2: Treatment (Coversin 5 mg/kg subcutaneous, q12h) • Group 3: Treatment (Zileuton 50 mg/kg orally once daily) • Group 4: Treatment (PAS-Coversin 20 mg/kg subcutaneous, once daily)

[2] = system: K/BxN serum-transfer arthritis in C57BL/6 mice; assay: K/BxN serum transfer arthritis model, treatment of established disease (Example 2); assay type: in vivo, mouse (C57BL/6); conditions: 50 mg/kg orally once daily, day 4 to day 14
Method: The K/BxN serum-transfer arthritis (STA) model was used to test whether established arthritic disease could be ameliorated by Coversin.
as §1
as §2, with “day 2. The treatment was” for “day 2. Each treatment was”, “from day 4 to day” for “from day 0 to day”
Treatment groups were as follows: • Group 1: PBS (vehicle) • Group 2: Treatment (PAS-L Coversin 20 mg/kg subcutaneous once daily) • Group 3: Treatment (Zileuton 50 mg/kg orally once daily) • Group 4: Treatment (PAS-Coversin 20 mg/kg subcutaneous once daily)

Compound	lower affinity for LTB4 than BLT1 (Human BLT2; BLT2 compared with BLT1) [fold]	Kd (Human BLT2; human BLT2) [nM]	Kd (Human BLT1) [nM]	development of arthritis [1]	day of maximum clinical score [2] [days]
CCCCC/C=C\C[C@@H](O)/C=C/C=C/C=C\[C@@H](O)CCCC(=O)O [LTB4, Leukotriene B4]	20	23	0.39 to 1.5		
CC(c1cc2ccccc2s1)N(O)C(N)=O (centres unmarked) [Zileuton, N-[1-(1-benzothien-2-yl)ethyl]-N-hydroxyurea]				partially ameliorates the development of arthritis	6
